Test results reported in US20240009269A1 (priority 2020, published 2024).

Tested on: tissue-engineered dhBMECs microvessels
Test: BBB opening in tissue-engineered BBB microvessels (500 kDa dextran leakage)
Type: cell-based, human
Procedure: Three-dimensional blood-brain barrier microvessels were fabricated as previously reported (FIGS. 10A and 10B) [Linville, R. M., et al., Biomaterials, 2019. 190-191: p. 24-37] 150 μm diameter and 1 cm long channels were patterned in 7 mg mL^−1 type I collagen (Corning) using nitinol wire (Malin Co.) housed within polydimethylsiloxane (PDMS; Dow Corning). Channels were cross-linked by incubation in 20 mM genipin (Wako Biosciences) for 2 hours to increase cell adhesion. 2dhBMECs were suspended in BBB induction medium at a concentration of 5×10^6 cells mL^−1 and seeded into channels. Microvessels were perfused using BBB induction medium for 24 hours and then switched to BBB maintenance medium. During cell seeding and the first day of perfusion, 10 μM ROCK inhibitor Y27632 (ATCC) was supplemented to increase adhesion. An average shear stress of ˜2 dyn cm^−2 was maintained with a reservoir height difference (Δh) of 3 cm, corresponding to a volumetric flow rate of ˜250 μL h^−1 (FIG. 11D). This shear stress was estimated from the Poiseuille equation: τ=μQ)/2πd3 where μ is the media dynamic viscosity, Q is the volumetric flow rate, and d is the microvessel diameter.
Live-cell imaging was conducted to study dynamic changes in in vitro BBB permeability and microvessel structure. Microvessels were imaged using a 10×objective equipped on an inverted microscope (Nikon Eclipse TiE) maintained at 37° C. and 5% CO2 (FIG. S2C). Epifluorescence illumination was provided by an X-Cite 120LEDBoost (Excelitas Technologies). Phase contrast and fluorescence images were acquired every two minutes with the focal plane set to the microvessel midplane. The entire image collected consists of ten adjacent imaging frames. […] A dextran solute panel comprised of 200 μM Cascade Blue-conjugated 3 kDa dextran (Cat. No. D7132. Thermo Fisher Scientific), 16 μM Alexa Fluor647-conjugated 10 kDa dextran (Cat. No. D22914, Thermo Fisher Scientific), and 1.2 μM fluorescein-conjugated 500 kDa dextran (Cat. No. D7136, Thermo Fisher Scientific) was prepared in BBB maintenance medium. Fluorophores were independently excited and the respective emissions were collected using: Nikon UV-2E/C for 3 kDa dextran (50 ms exposure), Chroma 41008 for 10 kDa dextran (20 ms exposure), and Nikon B-2E/C for 500 kDa dextran (50 ms exposure).
Image processing was performed using ImageJ (NIH) to quantify BBB opening (FIGS. 11A-11D). First, images were cropped to a standard size of 6 mm×0.6 mm. To determine the spatial heterogeneity of BBB permeability, microvessels were sectioned into 10 regions of interest (ROIs), each a 0.6 mm×0.6 mm square (FIG. 11A). For each ROI, the integrated pixel density was plotted over time (FIG. 11A). The permeability (cm s^−1) was calculated using P=(r/2)(1/ΔI)(dI/dt), where r is the vessel radius, ΔI is the increase in fluorescence intensity upon perfusion of the fluorophore, and (dI/dt) is the rate of increase in fluorescence intensity as solute exits into the gel. […] To visually display permeability dynamics, heatmaps were generated from 90 instantaneous permeability values across the 10 ROIs (x-axis) and nine 10-minute periods (y-axis). […] 28(1): p. 41-51 in ImageJ (FIG. 11B). Under baseline conditions, thresholding results in the lumen designated as white (1) and extracellular matrix (ECM) as black (0). […] From binarized images, individual focal leaks were manually counted over time. Leaks emerging from the sides of the image frame were not counted. To quantify the duration of a BBB opening effect, we identified the time at which the last focal leak appeared and termed the focal leak reversibility time constant (τfocal leaks).

SMILES: CC[C@H](C)[C@H](NC(=O)CN)C(=O)NCC(=O)N[C@@H](C)C(=O)N[C@H](C(=O)N[C@@H](CC(C)C)C(=O)N[C@@H](CCCCN)C(=O)N[C@H](C(=O)N[C@@H](CC(C)C)C(=O)N[C@H](C(=O)N[C@H](C(=O)NCC(=O)N[C@@H](CC(C)C)C(=O)N1CCC[C@H]1C(=O)N[C@@H](C)C(=O)N[C@@H](CC(C)C)C(=O)N[C@H](C(=O)N[C@@H](CO)C(=O)N[C@@H](Cc1c[nH]c2ccccc12)C(=O)N[C@H](C(=O)N[C@@H](CCCCN)C(=O)N[C@@H](CCCNC(=N)N)C(=O)N[C@@H](CCCCN)C(=O)N[C@@H](CCCNC(=N)N)C(=O)N[C@@H](CCC(N)=O)C(=O)N[C@@H](CCC(N)=O)C(N)=O)[C@@H](C)CC)[C@@H](C)CC)[C@@H](C)O)[C@@H](C)O)C(C)C)C(C)C [melittin]
- increase in delivery of 500 kDa dextran across the blood-brain barrier in vitro: ≤ 25 fold
- 500 kDa dextran permeability (5 μM melittin for 90 minutes, continuous): high 500 kDa dextran permeability
- average permeability of 500 kDa dextran, fold higher than baseline (50 μM·minute dose): ~25 fold
- focal leak density relative to mannitol (above threshold doses, retrospective comparison): 3 fold
- focal leaks 24 hours after melittin exposure (all doses, 3-100 μM·minute, 500 kDa dextran): focal leaks were not observed
- barrier function after 24 hours (high doses): barrier function was regained 24 hours later
- BBBO (high doses (10-minute 10 μM)): induced sustained BBBO, but did not recover during the 90 minutes of imaging
- BBBO (intermediate doses (5-minute 5 μM)): induced BBBO and resulted in recovery during the 90 minute imaging period
- character of focal leaks (intermediate doses (20-50 μM·minute)): transient
- BBBO (low doses (2-minute 1.5 μM)): did not induce BBBO
